Inconclusive results and toxic doses are left out. How the source made its calls: active means survival T/C of 150% or more; inactive means T/C below 125% in these data.
System: CD2F1 mice, L1210 leukemia ip, survival T/C
Assay: NCI In Vivo Anticancer Drug Screen. Data for tumor model L1210 Leukemia (intraperitoneal) in CD2F1 (CDF1) mice
Settings: higher = longer survival
Outline: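 Tumor-bearing mice (transplanted tumor) were split into treated and vehicle control groups, and the measured endpoint of each treated group was divided by that of its vehicle controls.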

[1] = endpoint: mean survival time, dose: 100.0 mg/kg/injection, schedule: Q04DX002 (ip), vehicle: saline with Tween-80
[2] = endpoint: mean survival time, dose: 200.0 mg/kg/injection, schedule: Q04DX002 (ip), vehicle: saline with Tween-80
[3] = endpoint: mean survival time, dose: 400.0 mg/kg/injection, schedule: Q04DX002 (ip), vehicle: saline with Tween-80
[4] = endpoint: mean survival time, dose: 12.5 mg/kg/injection, schedule: Q01DX009 (ip), vehicle: saline with Tween-80
[5] = endpoint: mean survival time, dose: 25.0 mg/kg/injection, schedule: Q01DX009 (ip), vehicle: saline with Tween-80
[6] = endpoint: mean survival time, dose: 50.0 mg/kg/injection, schedule: Q01DX009 (ip), vehicle: saline with Tween-80

Measured: T/C

CCCCCCCC/C=C/CCCCCCCC1=NCCN1CCO
inactive: [1] 95 % of control | [2] 103 % of control | [3] 100 % of control

O=C(O)CCSc1ccc2c(c1)CCCC2
inactive: endpoint: mean survival time, dose: 100.0 mg/kg/injection, schedule: Q01DX009 (ip), vehicle: Klucel (hydroxypropylcellulose) (HPC) 101 % of control | endpoint: mean survival time, dose: 200.0 mg/kg/injection, schedule: Q01DX009 (ip), vehicle: Klucel (hydroxypropylcellulose) (HPC) 98 % of control

CC(=O)CC(=O)c1cccnc1
inactive: endpoint: mean survival time, dose: 100.0 mg/kg/injection, schedule: Q04DX003 (ip), vehicle: saline with Tween-80 103 % of control | endpoint: mean survival time, dose: 200.0 mg/kg/injection, schedule: Q04DX003 (ip), vehicle: saline with Tween-80 97 % of control | endpoint: mean survival time, dose: 400.0 mg/kg/injection, schedule: Q04DX003 (ip), vehicle: saline with Tween-80 101 % of control

O=C(CC(c1ccccc1)C(C(=O)O)C(=O)O)c1ccccc1 (centres undefined)
inactive: endpoint: mean survival time, dose: 100.0 mg/kg/injection, schedule: Q04DX002 (ip), vehicle: other 97 % of control | endpoint: mean survival time, dose: 200.0 mg/kg/injection, schedule: Q04DX002 (ip), vehicle: other 101 % of control | endpoint: mean survival time, dose: 400.0 mg/kg/injection, schedule: Q04DX002 (ip), vehicle: other 104 % of control

Cc1ccc(S(=O)(=O)Nc2ccc([N+](=O)[O-])cc2O)cc1
inactive: endpoint: mean survival time, dose: 100.0 mg/kg/injection, schedule: Q04DX003 (ip), vehicle: Klucel (hydroxypropylcellulose) (HPC) 94 % of control | endpoint: mean survival time, dose: 200.0 mg/kg/injection, schedule: Q04DX003 (ip), vehicle: Klucel (hydroxypropylcellulose) (HPC) 94 % of control | endpoint: mean survival time, dose: 400.0 mg/kg/injection, schedule: Q04DX003 (ip), vehicle: Klucel (hydroxypropylcellulose) (HPC) 94 % of control

CC(N)CCc1ccccc1 (centres undefined)
inactive: [4] 102 % of control | [5] 100 % of control | [6] 102 % of control

O=C(NCC1CCCC1)c1ccccc1
inactive: endpoint: mean survival time, dose: 100.0 mg/kg/injection, schedule: Q01DX001 (ip), vehicle: saline 95 % of control | endpoint: mean survival time, dose: 200.0 mg/kg/injection, schedule: Q01DX001 (ip), vehicle: saline 97 % of control | endpoint: mean survival time, dose: 400.0 mg/kg/injection, schedule: Q01DX001 (ip), vehicle: saline 89 % of control

CCc1cc2c(cc1C(=O)/C=C\c1cccc3ccccc13)C(C)(C)CCC2(C)C
inactive: endpoint: mean survival time, dose: 6.25 mg/kg/injection, schedule: Q01DX009 (ip), vehicle: saline with Tween-80 94 % of control | [4] 86 % of control | [5] 93 % of control

O.O=P(O)(O)O.[NH-]C1CCCCC1[NH-].[Pt+2] (centres undefined)
inactive: endpoint: mean survival time, dose: 50.0 mg/kg/injection, schedule: Q04DX003 (ip), vehicle: water 120 % of control

COC(=O)/C=C(/Nc1ccccc1C(=O)O)C(=O)OC
inactive: endpoint: mean survival time, dose: 100.0 mg/kg/injection, schedule: Q04DX003 (ip), vehicle: saline 89 % of control | endpoint: mean survival time, dose: 200.0 mg/kg/injection, schedule: Q04DX003 (ip), vehicle: saline 101 % of control | endpoint: mean survival time, dose: 400.0 mg/kg/injection, schedule: Q04DX003 (ip), vehicle: saline 90 % of control

Cc1cn(C2OC(CO)C(O)C2Cl)c(=O)nc1N (centres undefined)
inactive: endpoint: median survival time, dose: 12.5 mg/kg/injection, schedule: Q01DX005 (ip), vehicle: saline 101 % of control | endpoint: median survival time, dose: 25.0 mg/kg/injection, schedule: Q01DX005 (ip), vehicle: saline 104 % of control | endpoint: median survival time, dose: 50.0 mg/kg/injection, schedule: Q01DX005 (ip), vehicle: saline 104 % of control | endpoint: median survival time, dose: 100.0 mg/kg/injection, schedule: Q01DX005 (ip), vehicle: saline 101 % of control | endpoint: median survival time, dose: 200.0 mg/kg/injection, schedule: Q01DX005 (ip), vehicle: saline 96 % of control

COC(=O)c1ccccc1NC(=O)CCl
inactive: [6] 96 % of control | endpoint: mean survival time, dose: 100.0 mg/kg/injection, schedule: Q01DX009 (ip), vehicle: saline with Tween-80 98 % of control | endpoint: mean survival time, dose: 200.0 mg/kg/injection, schedule: Q01DX009 (ip), vehicle: saline with Tween-80 94 % of control

Cc1cccc(NC(=O)COc2cc(Cl)c(Cl)cc2Cl)c1
inactive: [1] 98 % of control | [2] 98 % of control | [3] 94 % of control

CC(C)=CCNc1ncnc2c1ncn2C1OC(COP(=O)(O)O)C(O)C1O (centres undefined)
inactive: endpoint: mean survival time, dose: 25.0 mg/kg/injection, schedule: Q01DX005 (ip), vehicle: water 103 % of control | endpoint: mean survival time, dose: 50.0 mg/kg/injection, schedule: Q01DX005 (ip), vehicle: water 104 % of control | endpoint: mean survival time, dose: 100.0 mg/kg/injection, schedule: Q01DX005 (ip), vehicle: water 103 % of control | endpoint: mean survival time, dose: 200.0 mg/kg/injection, schedule: Q01DX005 (ip), vehicle: water 114 % of control

CCOc1ccccc1NCN1C(=O)c2ccccc2C1=O
inactive: endpoint: mean survival time, dose: 50.0 mg/kg/injection, schedule: Q04DX002 (ip), vehicle: saline with Tween-80 95 % of control | [1] 91 % of control | [2] 95 % of control | [3] 88 % of control

O=C(NC(C(=O)NC(C(=O)O)C1CC(Cl)=NO1)C1CC(Cl)=NO1)OCC1c2ccccc2-c2ccccc21 (centres undefined)
inactive: endpoint: mean survival time, dose: 1.6 mg/kg/injection, schedule: Q01DX009 (ip), vehicle: saline 122 % of control | endpoint: mean survival time, dose: 3.1 mg/kg/injection, schedule: Q01DX009 (ip), vehicle: saline 116 % of control | endpoint: mean survival time, dose: 25.0 mg/kg/injection, schedule: Q01DX009 (ip), vehicle: saline 87 % of control

Source: PubChem BioAssay AID256 (DTP/NCI, 2004)
